Laboratory results taken from US20230241121A1, “COMPOSITIONS AND METHODS RELATING TO EXOSOMES DERIVED FROM HUMAN DERMAL PAPILLA CELLS” (NORTH CAROLINA STATE UNIVERSITY, priority 2020, published 2023).

What was measured:
[1] = test system: depilated C57BL/6 mice; experiment: Dorsal hair regrowth in depilated mice; format: in vivo
Excerpt: Animals and in vivo studies. Seven-week-old male C57BL/6 mice were purchased from Jackson laboratory and allowed to adapt to their new environment for 1 week. Hair was removed by using depilatory cream to observe the pink skin. Then, animals were randomly divided into groups (n=5) randomly to investigate hair regrowth. Minoxidil was topically applied daily as a positive control. Other treatments were given subcutaneously. All work with mice was in accordance with IACUC. Cell treatment dose: 1.0×10^6 cells in 200 μL PBS were subcutaneously injected into 10 spots (20 μL per site) on the left side of the dorsal skin. Exosome treatment dose: 2.0×10^9 exosomes in 200 μL PBS were subcutaneously injected to 10 spots (20 μL per site) on the left side of the backs. Negative control, miR-218-5p mimics and inhibitors (Sigma-Aldrich): administered according to the protocol provided by in vivo-jetPEI™ (Polyplus transfection). In brief, mice received ten injections per depilated dorsal skin. 400 ng miRNA mimic or inhibitor was dissolved in 90 μl 5% glucose (w/v) solution, and then 10 μl in vivo-jet PEI solution was added. Vortex-mix the solution immediately and incubate for 15 minutes at room temperature before injection. […]
The state of hair re-growth in depilated mice was photographed on days 0, 10, 15, and 20, and hair growth area was analyzed via morphological observation (FIGS. 3A-3D). […]

[2] = test system: Ki67; experiment: Immunostaining of Ki67 in dorsal skin hair follicles ten days after treatment; format: in vivo, C57BL/6 mice; conditions: day 10
Excerpt: (§1) Animals and in vivo studies. Seven-week-old male C57BL/6 mice were purchased from Jackson laboratory and allowed to adapt to their new environment for 1 week. Hair was removed by using depilatory cream to observe the pink skin. Then, animals were randomly divided into groups (n=5) randomly to investigate hair regrowth. Minoxidil was topically applied daily as a positive control. Other treatments were given subcutaneously. All work with mice was in accordance with IACUC. Cell treatment dose: 1.0×10^6 cells in 200 μL PBS were subcutaneously injected into 10 spots (20 μL per site) on the left side of the dorsal skin. Exosome treatment dose: 2.0×10^9 exosomes in 200 μL PBS were subcutaneously injected to 10 spots (20 μL per site) on the left side of the backs. Negative control, miR-218-5p mimics and inhibitors (Sigma-Aldrich): administered according to the protocol provided by in vivo-jetPEI™ (Polyplus transfection). In brief, mice received ten injections per depilated dorsal skin. 400 ng miRNA mimic or inhibitor was dissolved in 90 μl 5% glucose (w/v) solution, and then 10 μl in vivo-jet PEI solution was added. Vortex-mix the solution immediately and incubate for 15 minutes at room temperature before injection. Control groups were injected with mimic control.
(§2) Skin tissue histology. Mice were euthanized and the whole dorsal skin was removed. […]

[3] = test system: CD133; experiment: Immunostaining of CD133 in dorsal skin hair follicles ten days after treatment; format: in vivo, C57BL/6 mice; conditions: treated side, day 10
Excerpt: as §1, §2

[4] = test system: β-catenin; experiment: Immunostaining of β-catenin in dorsal skin hair follicles ten days after treatment; format: in vivo, C57BL/6 mice; conditions: treated side, day 10
Excerpt: as §1, §2

Nc1cc(N2CCCCC2)nc(N)[n+]1[O-] [5% minoxidil, minoxidil]
fur coverage ([1]; day 15, treated side): 35% | fur coverage ([1]; day 15, untreated side): 10% | Ki67 signals ([2]; non-treated side): 7.1% | Ki67 signals ([2]; treated side): 37.2% | expression of CD133 (CD133 positive cells) [3]: 7.2% | expression of β-catenin (β-catenin positive cells) [4]: 2.3%
